Test results published in patent US4552898A, “[3.2.0]Bicycloheptanone oxime ethers with valuable therapeutic properties” (Syntex (U.S.A.) Inc., priority 1983, dated 1985).

Tests used:
[1] = system: human platelet-rich plasma; test: In vitro human platelet aggregation inhibition (turbidimetric); type: cell-based; details: ADP inducer
Method: Biological activity of the claimed compounds is tested by in vitro human platelet aggregation assay. This assay determines the effectiveness of the compounds in inhibiting the platelet aggregation
Immediately thereafter, the platelets start to secrete large quantities of adenosine diphosphate (ADP) which, in turn activates the other platelets that adhere to the original platelets and eventually form the plug which closes the rupture of the vascular wall. In medical parlance the first process is called collagen-induced primary platelet aggregation, the second process is called ADP-mediated secondary platelet aggregation. This situation can be artificially simulated by natural platelet aggregation inducers such as collagen, ADP, or arachidonic acid to the human platelet-rich plasma.
The blood samples used for the assay are collected into sodium citrate anticoagulant of a final concentration of 0.38%. The platelet-rich plasma is collected after centrifugation at 200 rpm at room temperature. To determine whether the platelet-rich plasma needs dilution to obtain optimal optical density, citrated plasma containing […] platelets per milliliter is pipetted into a Spinco transparent plastic centrifuge tube. The tube is inserted into a Unicam SP 400 absorptiometer and the light at the wave-length of 600 mμ is passed through the tube. The dark current is set at infinity and the optical density of distilled water at zero. The plasma is stirred by a magnetic stirrer. If necessary, platelet-rich plasma is diluted with 0.154M sodium chloride to obtain appropriate optical density
Platelet-rich plasma of appropriate optical density is mixed with appropriate concentration of tested compounds to make up 1 ml of mixture of platelet-rich plasma and tested compound. The concentration of each tested compound varied from 1.0×10^-5 moles to 1.0×10^-9 moles. Each concentration is tested individually by number of repetitions varying from 1 to 6. Each sample mixture consisting of platelet-rich plasma and tested compound is incubated for about 3 to 5 minutes under constant stirring at 500 rpm at 30° C. Thereafter, a predetermined optimal concentration of platelet aggregation inducer is added to each sample mixture. Inducers which are used for testing may be chosen from: […]
Adenosine Diphosphate (ADP) is purchased from Sigma Chemical Company. ADP inducer solution of final concentration of 5 μmol is prepared by dissolving 214 mg of ADP in 1 ml of tris buffer (0.01M at pH 9 at 22° C.). […]
A tube with the mixture of platelet-rich plasma, tested compound and ADP inducer (5 μmol/10 μl) is inserted into the absorptiometer and optical density changes are recorded on chart. Aggregation of the platelets is determined from maximal optical density change. Maximal optical density of a mixture of platelet-rich plasma with inducer, but without the tested compounds, is taken as 100% of platelet aggregation. The maximal optical density of the sample mixture of platelet-rich plasma, ADP inducer and appropriate amount of tested compound is compared to the maximal optical density of the sample without tested compound and inhibitory effectiveness of tested compounds is calculated. For each sample the percentage of the platelet aggregation is calculated and if more than one measurement with the same concentration of the tested compounds are done, the final value is expressed as an average of all measurements with ±S.E. The inhibitory concentration is the effective concentration of tested compound which is able to prevent 50% of the platelet aggregation, where, without the tested compound, the platelet aggregation would have been 100%. PGE1 has an IC50 of 2-8×10^-8 M.

[2] = Acute toxicity in mice, single intraperitoneal administration; set-up: species or system Male Sim: (SW)f BR mice; details: mouse, in vivo, ip
Method: Male Sim: (SW)f BR mice weighing approximately 25 g were randomly assigned to treatment groups of 6 animals, caged together, and were given food and water ad libitum.
The test material was prepared as an aqueous solution or suspension in CMC vehicle (sodium carboxymethyl cellulose, 0.5 g; sodium chloride, 0.9 g; benzyl alcohol, 0.9 ml; Tween 80, 0.4 ml; and water to 100 ml). The test material and the control vehicle were administered once by the indicated route at a dose level of 10 ml per kg body weight.
Following administration of the test material on day 1, animals were observed daily and any deaths were recorded.

| Structure (SMILES) | IC50 ([1]; Homo sapiens, Platelet) [nM] | further results |
| --- | --- | --- |
| CCCCCC(O)C#CC1CC2C(=NOCC(=O)O)CC2C1O (stereo not drawn) [Compound 1, N--[2-endo-hydroxy-3-exo-(3αS--hydroxyoct-1-ynyl)bicyclo[3.2.0]hept-6-ylidene]aminooxyacetic acid] |  | IC50 [1]: 18.6 nM |
| CCCCCC(O)C=CC1CC2C(=NOCC(=O)O)CC2C1O (stereo not drawn) [Compound 2, N--[2-endo-hydroxy-3-exo-(3αS--hydroxyoct-1-trans-enyl)bicyclo[3.2.0]hept-6-ylidene]aminooxyacetic acid] | 89 |  |
| CCCCCC(O)CCC1CC2C(=NOCC(=O)O)CC2C1O (stereo not drawn) [Compound 3, N--[2-endo-hydroxy-3-exo-(3αβS--hydroxyoct-1-yl)bicyclo[3.2.0]hept-6-ylidene]aminooxyacetic acid] | 1400 |  |
| O=C(O)CON=C1CC2C1CC(C#CC(O)C1CCCC1)C2O (stereo not drawn) [Compound 4, N--[2-endo-hydroxy-3-exo-(3-hydroxy-3-cyclopentylprop-1-ynyl)bicyclo[3.2.0]hept-6-ylidene]aminooxyacetic acid] | 12.5 |  |
| O=C(O)CON=C1CC2C1CC(/C=C/C(O)C1CCCC1)C2O (stereo not drawn) [Compound 5] |  | IC50 [1]: 11.2 nM |
| O=C(O)CON=C1CC2C1CC(CCC(O)C1CCCC1)C2O (stereo not drawn) [Compound 6, N--[2-endo-hydroxy-3-exo-(3-hydroxy-3-cyclopentylprop-1-yl)bicyclo[3.2.0]hept-6-ylidene]aminooxyacetic acid] | 1000 |  |
| O=C(O)CON=C1CC2C1CC(C#CC(O)C1CCCCC1)C2O (stereo not drawn) [Compound 7, N--[2-endo-hydroxy-3-exo-(3-hydroxy-3-cyclohexylprop-1-ynyl)bicyclo[3.2.0]hept-6-ylidene]aminooxyacetic acid] | 24 |  |
| O=C(O)CON=C1CC2C1CC(CCC(O)C1CCCCC1)C2O (stereo not drawn) [Compound 8, N--[2-endo-hydroxy-3-exo-(3-hydroxy-3-cyclohexylprop-1-yl)bicyclo[3.2.0]hept-6-ylidene]aminooxyacetic acid] | 88 |  |
| CCCCCCCC(O)C#CC1CC2C(=NOCC(=O)O)CC2C1O (stereo not drawn) [Compound 9, N--[2-endo-hydroxy-3-exo-(3-hydroxydec-1-ynyl)bicyclo[3.2.0]hept-6-ylidene]aminooxyacetic acid] | 32 |  |
| CCCCCC(O)C#CC1CC2C(=NOCC(=O)O)CC2C1O (stereo not drawn) [Compound 11, N--[2-endo-hydroxy-3-exo-(3αβS--hydroxyoct-1-ynyl)bicyclo[3.2.0]hept-6-ylidene]aminooxyacetic acid] |  | IC50 [1]: 70 nM |
| CCCCCC(O)C#CC1CC2C(=NOCCC(=O)O)CC2C1O (stereo not drawn) [Compound 12, N--[2-endo-hydroxy-3-exo-(3αS--hydroxyoct-1-ynyl)bicyclo[3.2.0]hept-6-ylidene]-3-aminooxypropionic acid] |  | IC50 [1]: 31 nM |
| CCCCCC(O)C=CC1CC2C(=NOCCC(=O)O)CC2C1O (stereo not drawn) [Compound 13, N--[2-endo-hydroxy-3-exo-(3αS--hydroxyoct-1-trans-enyl)bicyclo[3.2.0]hept-6-ylidene]-3-aminooxypropionic acid] | 6.9 |  |
| CCCCCC(O)CCC1CC2C(=NOCCC(=O)O)CC2C1O (stereo not drawn) [Compound 14, N--[2-endo-hydroxy-3-exo-(3αβS--hydroxyoct-1-yl)bicyclo[3.2.0]hept-6-ylidene]-3-aminooxypropionic acid] | 2200 |  |
| O=C(O)CCON=C1CC2C1CC(C#CC(O)C1CCCC1)C2O (stereo not drawn) [Compound 15, N--[2-endo-hydroxy-3-exo-(3-hydroxy-3-cyclopentylprop-1-ynyl)bicyclo[3.2.0]hept-6-ylidene]-3-aminooxypropionic acid] | 31 |  |
| O=C(O)CCON=C1CC2C1CC(/C=C/C(O)C1CCCC1)C2O (stereo not drawn) [Compound 16, N--[2-endo-hydroxy-3-exo-(3α-hydroxy-3-cyclopentylprop-1-trans-enyl)bicyclo[3.2.0]hept-6-ylidene]-3-aminooxypropionic acid] |  | IC50 [1]: 10.5 nM |
| O=C(O)CCON=C1CC2C1CC(CCC(O)C1CCCC1)C2O (stereo not drawn) [Compound 17, N--[2-endo-hydroxy-3-exo-(3-hydroxy-3-cyclopentylprop-1-yl)bicyclo[3.2.0]hept-6-ylidene]-3-aminooxypropionic acid] | 1020 |  |
| O=C(O)CCON=C1CC2C1CC(C#CC(O)C1CCCCC1)C2O (stereo not drawn) [Compound 18, N--[2-endo-hydroxy-3-exo-(3-hydroxy-3-cyclohexylprop-1-ynyl)bicyclo[3.2.0]hept-6-ylidene]-3-aminooxypropionic acid] | 8.4 |  |
| O=C(O)CCON=C1CC2C1CC(/C=C/C(O)C1CCCCC1)C2O (stereo not drawn) [Compound 19, N--[2-endo-hydroxy-3-exo-(3α-hydroxy-3-cyclohexylprop-1-trans-enyl)bicyclo[3.2.0]hept-6-ylidene]-3-aminooxypropionic acid] |  | IC50 [1]: 81 nM |
| O=C(O)CCON=C1CC2C1CC(CCC(O)C1CCCCC1)C2O (stereo not drawn) [Compound 20, N--[2-endo-hydroxy-3-exo-(3-hydroxy-3-cyclohexylprop-1-yl)bicyclo[3.2.0]hept-6-ylidene]-3-aminooxypropionic acid] | 2350 |  |
| CCCCCCCC(O)C#CC1CC2C(=NOCCC(=O)O)CC2C1O (stereo not drawn) [Compound 21, N--[2-endo-hydroxy-3-exo-(3-hydroxydec-1-ynyl)bicyclo[3.2.0]hept-6-ylidene]-3-aminooxypropionic acid] | 117 |  |
| CCCCCCCC(O)CCC1CC2C(=NOCCC(=O)O)CC2C1O (stereo not drawn) [Compound 22, N--[2-endo-hydroxy-3-exo-(3-hydroxydec-1-yl)bicyclo[3.2.0]hept-6-ylidene]-3-aminooxypropionic acid] | 1300 |  |
| CCCCCC(O)C#CC1CC2C(=NOCCC(=O)O)CC2C1O (stereo not drawn) [Compound 23, N--[2-endo-hydroxy-3-exo-(3-hydroxyoct-1-ynyl)bicyclo[3.2.0]hept-6-ylidene] -3-aminooxypropionic acid] |  | IC50 [1]: 175 nM |
| CCCCCC(O)C#CC1CC2C(=NOCCC(=O)O)CC2C1O (stereo not drawn) [Compound 24, N--[2-endo-hydroxy-3-exo-(3αβS--hydroxyoct-1-ynyl)bicyclo[3.2.0]hept-6-ylidene]-3-aminooxypropionic acid] |  | IC50 [1]: 43 nM |
| CCCCCC(O)C#CC1CC2C(=NOCCCC(=O)O)CC2C1O (stereo not drawn) [Compound 25, N--[2-endo-hydroxy-3-exo-(3αβS--hydroxyoct-1-ynyl)bicyclo[3.2.0]hept-6-ylidene]-4-aminooxybutyric acid] | 420 |  |
| CCCCCC(O)C#CC1C(O)CC2C(=NOCCC(=O)O)CC21 (stereo not drawn) [Compound 26, N--[3-endo-hydroxy-2-exo-(3αβS--hydroxyoct-1-ynyl)bicyclo[3.2.0]hept-6-ylidene]-3-aminooxypropionic acid] | 21000 |  |
| CCCCCC(O)C#CC1C(O)CC2C(=NOCCCC(=O)O)CC21 (stereo not drawn) [Compound 27, N--[3-endo-hydroxy-2-exo-(3αβS--hydroxyoct-1-ynyl)bicyclo[3.2.0]hept-6-ylidene]-4-aminooxybutyric acid] | 1100 |  |
| CCCCCC(O)C#CC1CC2C(=NOCCC(=O)O)CC2C1O (stereo not drawn) [Test Material] |  | LD50 [2]: > 120 mg/kg |
